Article PMC8546428, “Convergent olfactory trace amine-associated receptors detect biogenic polyamines with distinct motifs via a conserved binding site” (The Journal of Biological Chemistry, 2021)
Substitutions are numbered along the chain they refer to.

Key:
[1] = biological target: T1, WT sTAAR365 (Petromyzon marinus, UniProt A0A678XMK4); assay: cAMP TR-FRET assay, wild-type sTAAR365 in HEK293T; type: cell-based, sea lamprey; settings: for activation of sTAAR365 (cAMP accumulation): ligand 1 mM, HEK293T, Fig. 2A
T1 sequence (A0A678XMK4 1-365): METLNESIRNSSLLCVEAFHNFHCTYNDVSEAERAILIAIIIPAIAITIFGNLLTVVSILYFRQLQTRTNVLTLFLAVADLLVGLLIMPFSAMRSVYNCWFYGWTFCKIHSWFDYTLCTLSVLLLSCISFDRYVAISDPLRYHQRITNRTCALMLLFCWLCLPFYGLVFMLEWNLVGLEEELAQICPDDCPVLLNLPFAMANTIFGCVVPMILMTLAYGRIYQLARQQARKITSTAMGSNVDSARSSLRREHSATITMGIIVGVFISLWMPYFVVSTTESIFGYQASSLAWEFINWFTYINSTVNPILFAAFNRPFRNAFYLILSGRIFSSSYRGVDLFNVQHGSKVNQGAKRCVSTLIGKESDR
Method: HEK293T cells were transfected with sea lamprey sTAAR365 for 24 h and assayed for Golf-mediated cAMP production with a TR-FRET assay at 30 min after ligand addition. Receptor activity was normalized to the cAMP level in buffer-treated cells (mean ± S.D., n = 3). A, HEK293T cells expressing sTAAR365 or mock plasmid were incubated with either vehicle or tested ligands (1 mM). […] B, concentration-dependent cAMP production of HEK293T cells expressing sTAAR365 stimulated with cadaverine, putrescine, and spermine.

[2] = biological target: T2, sTAAR365 Y6.51F (Petromyzon marinus, UniProt A0A678XMK4, Y272F); assay: cell-based
T2 sequence (A0A678XMK4 1-365 Y272F): T1 sequence (A0A678XMK4 1-365) with Y272F

[3] = biological target: T3, sTAAR365 E7.36D (Petromyzon marinus, UniProt A0A678XMK4, E292D); assay: cell-based
T3 sequence (A0A678XMK4 1-365 E292D): T1 sequence (A0A678XMK4 1-365) with E292D

[4] = biological target: T4, sTAAR365 E7.36A (Petromyzon marinus, UniProt A0A678XMK4, E292A); assay: cell-based
T4 sequence (A0A678XMK4 1-365 E292A): T1 sequence (A0A678XMK4 1-365) with E292A

[5] = biological target: T5, sTAAR365 W7.40Y (Petromyzon marinus, UniProt A0A678XMK4, W296Y); assay: cell-based
T5 sequence (A0A678XMK4 1-365 W296Y): T1 sequence (A0A678XMK4 1-365) with W296Y

NCCCCCN [cadaverine]
EC50 [1]: 0.004 µM | difference in potency, cadaverine vs putrescine ([1]; WT sTAAR365): 1000 fold | response threshold ([1]; WT sTAAR365, cAMP production): ~100 pM | activation of sTAAR365 (cAMP accumulation) [1]: activated | EC50 [2]: 1.7 ± 0.9 µM | EC50 [3]: 0.007 ± 0.002 µM | EC50 [4]: 0.05 ± 0.02 µM | EC50 [5]: 0.127 ± 0.041 µM

NCCCCN [putrescine]
EC50 [1]: 56 µM | activation of sTAAR365 (cAMP accumulation) [1]: activated | EC50 [2]: > 500 µM | EC50 [3]: 72 ± 14 µM | EC50 [4]: 420 ± 87 µM | EC50 [5]: > 500 µM

NCCCNCCCCNCCCN [spermine]
EC50 [1]: 28 µM | maximal response (Emax) relative to cadaverine/putrescine ([1]; WT sTAAR365, cAMP production): one-third | activation of sTAAR365 (cAMP accumulation) [1]: activated | EC50 [2]: 114 ± 20 µM | EC50 [3]: > 500 µM | EC50 [4]: > 500 µM | EC50 [5]: 530 ± 259 µM
